# Source: ChEMBL document CHEMBL1275577, “Study of the in vitro activities of rifaximin and comparator agents against 536 anaerobic intestinal bacteria from the perspective of potential utility in pathology involving bowel flora” (Antimicrob Agents Chemother, 2009)
# Experiments:
# [1] = system: Parabacteroides goldsteinii; test: Antimicrobial activity against Parabacteroides goldsteinii by Wadsworth agar dilution method in presence of beta-lactamase inhibitor Sulbactam; type: functional
# [2] = system: Bacteroides thetaiotaomicron; test: Antimicrobial activity against Bacteroides thetaiotaomicron by Wadsworth agar dilution method in presence of beta-lactamase inhibitor Sulbactam; type: functional
# [3] = system: Desulfovibrio desulfuricans; test: Antimicrobial activity against Desulfovibrio desulfuricans by Wadsworth agar dilution method in presence of beta-lactamase inhibitor Sulbactam; type: functional
# Fusobacterium mortiferum [4] = test: Antimicrobial activity against Fusobacterium mortiferum by Wadsworth agar dilution method; type: functional
# Fusobacterium varium = test: Antimicrobial activity against Fusobacterium varium by Wadsworth agar dilution method in presence of beta-lactamase inhibitor Sulbactam; type: functional
# Porphyromonas = test: Antimicrobial activity against Porphyromonas sp. by Wadsworth agar dilution method in presence of beta-lactamase inhibitor Sulbactam; type: functional
# Porphyromonas uenonis = test: Antimicrobial activity against Porphyromonas uenonis by Wadsworth agar dilution method in presence of beta-lactamase inhibitor Sulbactam; type: functional
# Prevotella disiens = test: Antimicrobial activity against Prevotella disiens by Wadsworth agar dilution method in presence of beta-lactamase inhibitor Sulbactam; type: functional
# Prevotella intermedia = test: Antimicrobial activity against Prevotella intermedia by Wadsworth agar dilution method in presence of beta-lactamase inhibitor Sulbactam; type: functional
# Hoylesella loescheii = test: Antimicrobial activity against Prevotella loescheii by Wadsworth agar dilution method in presence of beta-lactamase inhibitor Sulbactam; type: functional
# Clostridioides difficile = test: Antimicrobial activity against Clostridium difficile by Wadsworth agar dilution method in presence of beta-lactamase inhibitor Sulbactam; type: functional
# Clostridium hathewayi = test: Antimicrobial activity against Clostridium hathewayi by Wadsworth agar dilution method in presence of beta-lactamase inhibitor Sulbactam; type: functional; conditions: Hungatella hathewayi
# [Clostridium] innocuum = Antimicrobial activity against Clostridium innocuum by Wadsworth agar dilution method in presence of beta-lactamase inhibitor Sulbactam; type: functional
# Clostridium beijerinckii = test: Antimicrobial activity against Clostridium beijerinckii by Wadsworth agar dilution method in presence of beta-lactamase inhibitor Sulbactam; type: functional
# Clostridium bolteae = test: Antimicrobial activity against Clostridium bolteae by Wadsworth agar dilution method in presence of beta-lactamase inhibitor Sulbactam; type: functional; conditions: Enterocloster bolteae
# Clostridium butyricum = test: Antimicrobial activity against Clostridium butyricum by Wadsworth agar dilution method in presence of beta-lactamase inhibitor Sulbactam; type: functional
# Clostridium fallax = test: Antimicrobial activity against Clostridium fallax by Wadsworth agar dilution method in presence of beta-lactamase inhibitor Sulbactam; type: functional
# Tissierella praeacuta = test: Antimicrobial activity against Clostridium hastiforme by Wadsworth agar dilution method in presence of beta-lactamase inhibitor Sulbactam; type: functional
# Clostridium leptum = test: Antimicrobial activity against Clostridium leptum by Wadsworth agar dilution method in presence of beta-lactamase inhibitor Sulbactam; type: functional
# Thomasclavelia ramosa = test: Antimicrobial activity against Clostridium ramosum by Wadsworth agar dilution method in presence of beta-lactamase inhibitor Sulbactam; type: functional
# Fusobacterium mortiferum [5] = test: Antimicrobial activity against Clostridium rectum by Wadsworth agar dilution method in presence of beta-lactamase inhibitor Sulbactam; type: functional
# Clostridium sporogenes = test: Antimicrobial activity against Clostridium sporogenes by Wadsworth agar dilution method in presence of beta-lactamase inhibitor Sulbactam; type: functional
# Actinomyces viscosus = test: Antimicrobial activity against Actinomyces viscosus by Wadsworth agar dilution method in presence of beta-lactamase inhibitor Sulbactam; type: functional
# Bifidobacterium breve = test: Antimicrobial activity against Bifidobacterium breve by Wadsworth agar dilution method in presence of beta-lactamase inhibitor Sulbactam; type: functional
# [6] = Antimicrobial activity against Bifidobacterium pseudocatenulatum by Wadsworth agar dilution method in presence of beta-lactamase inhibitor Sulbactam; type: functional
# [7] = system: Bifidobacterium pseudolongum; test: Antimicrobial activity against Bifidobacterium pseudolongum by Wadsworth agar dilution method in presence of beta-lactamase inhibitor Sulbactam; type: functional
# Collinsella aerofaciens = test: Antimicrobial activity against Colinsella aerofaciens by Wadsworth agar dilution method in presence of beta-lactamase inhibitor Sulbactam; type: functional
# Eggerthella lenta = test: Antimicrobial activity against Eggerthella lenta by Wadsworth agar dilution method in presence of beta-lactamase inhibitor Sulbactam; type: functional
# Eubacterium limosum = test: Antimicrobial activity against Eubacterium limosum by Wadsworth agar dilution method in presence of beta-lactamase inhibitor Sulbactam; type: functional
# [8] = system: Lactobacillus acidophilus; test: Antimicrobial activity against Lactobacillus acidophilus by Wadsworth agar dilution method in presence of beta-lactamase inhibitor Sulbactam; type: functional
# [9] = system: Lactiplantibacillus plantarum; test: Antimicrobial activity against Lactobacillus plantarum by Wadsworth agar dilution method in presence of beta-lactamase inhibitor Sulbactam; type: functional
# Cutibacterium acnes = test: Antimicrobial activity against Propionibacterium acnes by Wadsworth agar dilution method in presence of beta-lactamase inhibitor Sulbactam; type: functional
# Anaerococcus prevotii = test: Antimicrobial activity against Anaerococcus prevotii by Wadsworth agar dilution method in presence of beta-lactamase inhibitor Sulbactam; type: functional
# Blautia luti = test: Antimicrobial activity against Ruminococcus luti by Wadsworth agar dilution method in presence of beta-lactamase inhibitor Sulbactam; type: functional
# [10] = Drug level in stool of patient with traveler's diarrhea at 800 mg, po administered daily for 3 days; type: ADME, organism-based; conditions: human, in vivo, 72 h
compound,measurement,setting,value
CC1(C)S[C@@H]2[C@H](NC(=O)[C@H](N)c3ccccc3)C(=O)N2[C@H]1C(=O)O [AMPICILLIN],MIC50,[1],16 µg/mL
same,MIC90,[1],32 µg/mL
same,MIC50,[2],4 µg/mL
same,MIC90,[2],16 µg/mL
same,MIC50,[3],8 µg/mL
same,MIC90,[3],8 µg/mL
same,MIC50,Fusobacterium mortiferum [4],1 µg/mL
same,MIC90,Fusobacterium mortiferum [4],4 µg/mL
same,MIC50,Fusobacterium varium,1 µg/mL
same,MIC90,Fusobacterium varium,4 µg/mL
same,MIC,Porphyromonas,0.25 µg/mL
same,MIC50,Porphyromonas,0.25 µg/mL
same,MIC90,Porphyromonas,0.5 µg/mL
same,MIC,Porphyromonas uenonis,0.25 µg/mL
same,MIC50,Porphyromonas uenonis,0.25 µg/mL
same,MIC90,Porphyromonas uenonis,0.5 µg/mL
same,MIC50,Prevotella disiens,0.5 µg/mL
same,MIC90,Prevotella disiens,4 µg/mL
same,MIC50,Prevotella intermedia,0.5 µg/mL
same,MIC90,Prevotella intermedia,4 µg/mL
same,MIC50,Hoylesella loescheii,0.5 µg/mL
same,MIC90,Hoylesella loescheii,4 µg/mL
same,MIC50,Clostridioides difficile,2 µg/mL
same,MIC90,Clostridioides difficile,4 µg/mL
same,MIC50,Clostridium hathewayi,2 µg/mL
same,MIC90,Clostridium hathewayi,2 µg/mL
same,MIC,[Clostridium] innocuum,0.25 µg/mL
same,MIC50,[Clostridium] innocuum,0.25 µg/mL
same,MIC90,[Clostridium] innocuum,0.5 µg/mL
same,MIC,Clostridium beijerinckii,0.25 µg/mL
same,MIC50,Clostridium beijerinckii,0.25 µg/mL
same,MIC90,Clostridium beijerinckii,1 µg/mL
same,MIC,Clostridium bolteae,0.25 µg/mL
same,MIC50,Clostridium bolteae,0.25 µg/mL
same,MIC90,Clostridium bolteae,1 µg/mL
same,MIC,Clostridium butyricum,0.25 µg/mL
same,MIC50,Clostridium butyricum,0.25 µg/mL
same,MIC90,Clostridium butyricum,1 µg/mL
same,MIC,Clostridium fallax,0.25 µg/mL
same,MIC50,Clostridium fallax,0.25 µg/mL
same,MIC90,Clostridium fallax,1 µg/mL
same,MIC,Tissierella praeacuta,0.25 µg/mL
same,MIC50,Tissierella praeacuta,0.25 µg/mL
same,MIC90,Tissierella praeacuta,1 µg/mL
same,MIC,Clostridium leptum,0.25 µg/mL
same,MIC50,Clostridium leptum,0.25 µg/mL
same,MIC90,Clostridium leptum,1 µg/mL
same,MIC,Thomasclavelia ramosa,0.25 µg/mL
same,MIC50,Thomasclavelia ramosa,0.25 µg/mL
same,MIC90,Thomasclavelia ramosa,1 µg/mL
same,MIC,Fusobacterium mortiferum [5],0.25 µg/mL
same,MIC50,Fusobacterium mortiferum [5],0.25 µg/mL
same,MIC90,Fusobacterium mortiferum [5],1 µg/mL
same,MIC,Clostridium sporogenes,0.25 µg/mL
same,MIC50,Clostridium sporogenes,0.25 µg/mL
same,MIC90,Clostridium sporogenes,1 µg/mL
same,MIC,Actinomyces viscosus,0.25 µg/mL
same,MIC50,Actinomyces viscosus,0.25 µg/mL
same,MIC90,Actinomyces viscosus,2 µg/mL
same,MIC,Bifidobacterium breve,0.25 µg/mL
same,MIC50,Bifidobacterium breve,0.25 µg/mL
same,MIC90,Bifidobacterium breve,2 µg/mL
same,MIC,[6],0.25 µg/mL
same,MIC50,[6],0.25 µg/mL
same,MIC90,[6],2 µg/mL
same,MIC,[7],0.25 µg/mL
same,MIC50,[7],0.25 µg/mL
same,MIC90,[7],2 µg/mL
same,MIC,Collinsella aerofaciens,0.25 µg/mL
same,MIC50,Collinsella aerofaciens,0.25 µg/mL
same,MIC90,Collinsella aerofaciens,2 µg/mL
same,MIC,Eggerthella lenta,0.25 µg/mL
same,MIC50,Eggerthella lenta,0.25 µg/mL
same,MIC90,Eggerthella lenta,2 µg/mL
same,MIC,Eubacterium limosum,0.25 µg/mL
same,MIC50,Eubacterium limosum,0.25 µg/mL
same,MIC90,Eubacterium limosum,2 µg/mL
same,MIC,[8],0.25 µg/mL
same,MIC50,[8],0.25 µg/mL
same,MIC90,[8],2 µg/mL
same,MIC,[9],0.25 µg/mL
same,MIC50,[9],0.25 µg/mL
same,MIC90,[9],2 µg/mL
same,MIC,Cutibacterium acnes,0.25 µg/mL
same,MIC50,Cutibacterium acnes,0.25 µg/mL
same,MIC90,Cutibacterium acnes,2 µg/mL
same,MIC,Anaerococcus prevotii,0.25 µg/mL
same,MIC50,Anaerococcus prevotii,0.25 µg/mL
same,MIC90,Anaerococcus prevotii,2 µg/mL
same,MIC,Blautia luti,0.25 µg/mL
same,MIC50,Blautia luti,0.25 µg/mL
same,MIC90,Blautia luti,2 µg/mL
CO[C@H]1/C=C/O[C@@]2(C)Oc3c(C)c(O)c4c(O)c(c5c(nc6cc(C)ccn65)c4c3C2=O)NC(=O)/C(C)=C\C=C\[C@H](C)[C@H](O)[C@@H](C)[C@@H](O)[C@@H](C)[C@H](OC(C)=O)[C@@H]1C [RIFAXIMIN],concentration,[10],8000 µg/g
